Assay results from ChEMBL document CHEMBL1151438, “In vitro resistance study of rupintrivir, a novel inhibitor of human rhinovirus 3C protease” (Antimicrob Agents Chemother, 2007).

What was measured:
[1] = system: rhinovirus A2; experiment: Ratio of EC50 for HRV2 infected in human H1-HeLa cells after 5 passages for 30 days to EC50 for wild type HRV2 infected in human H1-HeLa cells; assay type: functional
[2] = system: rhinovirus A2; experiment: Ratio of EC50 for HRV2 infected in human H1-HeLa cells after 8 passages for 52 days to EC50 for wild type HRV2 infected in human H1-HeLa cells; assay type: functional
[3] = system: rhinovirus A2; experiment: Ratio of EC50 for HRV2 with 3C protease N165T mutation infected in human H1-HeLa cells after 3 passages for 24 days to EC50 for wild type HRV2 infected in human H1-HeLa cells; assay type: functional
[4] = system: rhinovirus B14; experiment: Ratio of EC50 for HRV14 with 3C protease T143P mutation infected in human H1-HeLa cells to EC50 for wild type HRV14 infected in human H1-HeLa cells; assay type: functional
[5] = system: rhinovirus A2; experiment: Antiviral activity against HRV2 with 3C protease E3E/G, A103A/V, N165T mutation infected in human H1-HeLa cells assessed as virus-induced cytopathic effect after 9 passages for 62 days by XTT assay; assay type: functional, organism-based; details: Rhinovirus A
[6] = system: rhinovirus B14; experiment: Antiviral activity against wild type HRV14 infected in human H1-HeLa cells assessed as virus-induced cytopathic effect after 3 days by XTT assay; assay type: functional, organism-based; details: Rhinovirus B, 72 h
[7] = system: Human rhinovirus sp.; experiment: Ratio of EC50 for HRV Hanks infected in human H1-HeLa cells after 9 passage for 59 days to EC50 for wild type HRV Hanks infected in human H1-HeLa cells; assay type: functional
[8] = system: rhinovirus B14; experiment: Ratio of EC50 for HRV14 with 3C protease T131A mutation infected in human H1-HeLa cells to EC50 for wild type HRV14 infected in human H1-HeLa cells; assay type: functional
[9] = system: rhinovirus B14; experiment: Ratio of EC50 for HRV14 infected in human H1-HeLa cells after 7 passages for 33 days to EC50 for wild type HRV14 infected in human H1-HeLa cells; assay type: functional
[10] = system: rhinovirus B14; experiment: Antiviral activity against HRV14 with 3C protease T129A, T131T/A, T143P mutation infected in human H1-HeLa cells assessed as virus-induced cytopathic effect after 4 passages for 17 days by XTT assay; assay type: functional, organism-based; details: Rhinovirus B, 408 h
[11] = system: rhinovirus B14; experiment: Ratio of EC50 for HRV14 infected in human H1-HeLa cells after 6 passages for 27 days to EC50 for wild type HRV14 infected in human H1-HeLa cells; assay type: functional
[12] = system: rhinovirus B14; experiment: Ratio of EC50 for HRV14 with 3C protease T129T/A, T131T/A, T143P/S mutation infected in human H1-HeLa cells after 3 passages for 14 days to EC50 for wild type HRV14 infected in human H1-HeLa cells; assay type: functional
[13] = system: rhinovirus A2; experiment: Ratio of EC50 for HRV2 infected in human H1-HeLa cells after 1 passage for 6 days to EC50 for wild type HRV2 infected in human H1-HeLa cells; assay type: functional
[14] = system: Human rhinovirus sp.; experiment: Ratio of EC50 for HRV Hanks infected in human H1-HeLa cells after 1 passage for 7 days to EC50 for wild type HRV Hanks infected in human H1-HeLa cells; assay type: functional
[15] = system: rhinovirus A39; experiment: Ratio of EC50 for HRV39 infected in human H1-HeLa cells after 9 passages for 50 days to EC50 for wild type HRV39 infected in human H1-HeLa cells; assay type: functional
[16] = system: rhinovirus B14; experiment: Antiviral activity against HRV14 with 3C protease A121A/V, T129A, T131A, T143P, Y139Y/H mutation infected in human H1-HeLa cells assessed as virus-induced cytopathic effect after 11 passages for 65 days by XTT assay; assay type: functional, organism-based; details: Rhinovirus B
[17] = system: rhinovirus A2; experiment: Antiviral activity against HRV2 with 3C protease N165T mutation infected in human H1-HeLa cells assessed as virus-induced cytopathic effect after 4 passages for 24 days by XTT assay; assay type: functional, organism-based; details: Rhinovirus A, 576 h
[18] = system: rhinovirus A39; experiment: Antiviral activity against HRV39 with 3C protease S105T, N130K, L136F mutation infected in human H1-HeLa cells assessed as virus-induced cytopathic effect after 9 passages for 50 days by XTT assay; assay type: functional, organism-based; details: Rhinovirus A
[19] = system: rhinovirus B14; experiment: Ratio of EC50 for HRV14 with 3C protease with A121A/V, T129A, T131A, T143P, Y139Y/H mutation infected in human H1-HeLa cells after 11 passages for 65 days to EC50 for wild type HRV14 infected in human H1-HeLa cells; assay type: functional
[20] = system: rhinovirus B14; experiment: Antiviral activity against HRV14 with 3C protease T129A, T131A, Y139H, T143P mutation infected in human H1-HeLa cells assessed as virus-induced cytopathic effect after 3 days by XTT assay; assay type: functional, organism-based; details: Rhinovirus B, 72 h
[21] = system: rhinovirus A39; experiment: Ratio of EC50 for HRV39 infected in human H1-HeLa cells after 2 passages for 12 days to EC50 for wild type HRV39 infected in human H1-HeLa cells; assay type: functional
[22] = system: rhinovirus A39; experiment: Antiviral activity against wild type HRV39 infected in human H1-HeLa cells assessed as virus-induced cytopathic effect after 3 days by XTT assay; assay type: functional, organism-based; details: Rhinovirus A, 72 h
[23] = system: rhinovirus A2; experiment: Ratio of EC50 for HRV2 infected in human H1-HeLa cells after 3 passages for 17 days to EC50 for wild type HRV2 infected in human H1-HeLa cells; assay type: functional
[24] = system: rhinovirus A2; experiment: Ratio of EC50 for HRV2 infected in human H1-HeLa cells after 4 passages for 24 days to EC50 for wild type HRV2 infected in human H1-HeLa cells; assay type: functional
[25] = system: rhinovirus A2; experiment: Ratio of EC50 for HRV2 infected in human H1-HeLa cells after 2 passages for 10 days to EC50 for wild type HRV2 infected in human H1-HeLa cells; assay type: functional
[26] = system: rhinovirus B14; experiment: Antiviral activity against HRV14 with 3C protease T131A mutation infected in human H1-HeLa cells assessed as virus-induced cytopathic effect after 3 days by XTT assay; assay type: functional, organism-based; details: Rhinovirus B, 72 h
[27] = system: rhinovirus A2; experiment: Antiviral activity against HRV2 with 3C protease N165T mutation infected in human H1-HeLa cells assessed as virus-induced cytopathic effect after 6 passages for 37 days by XTT assay; assay type: functional, organism-based; details: Rhinovirus A
[28] = system: rhinovirus B14; experiment: Antiviral activity against 0.02 MOI HRV14 infected in human H1-HeLa cells assessed as cell killing after 5 passages for 22 days by XTT assay; assay type: functional
[29] = system: rhinovirus A2; experiment: Ratio of EC50 for HRV2 infected in human H1-HeLa cells after 7 passages for 45 days to EC50 for wild type HRV2 infected in human H1-HeLa cells; assay type: functional
[30] = system: rhinovirus B14; experiment: Antiviral activity against HRV14 with 3C protease T129A, T131T/A, T143P mutation infected in human H1-HeLa cells assessed as virus-induced cytopathic effect after 5 passages for 22 days by XTT assay; assay type: functional, organism-based; details: Rhinovirus B, 528 h
[31] = system: rhinovirus B14; experiment: Ratio of EC50 for HRV14 infected in human H1-HeLa cells after 12 passages for 72 days to EC50 for wild type HRV14 infected in human H1-HeLa cells; assay type: functional
[32] = system: rhinovirus B14; experiment: Antiviral activity against HRV14 with 3C protease T129T/A, T131T/A, T143P/S mutation infected in human H1-HeLa cells assessed as virus-induced cytopathic effect after 3 passages for 14 days by XTT assay; assay type: functional, organism-based; details: Rhinovirus B, 336 h
[33] = system: Human rhinovirus sp.; experiment: Ratio of EC50 for HRV Hanks infected in human H1-HeLa cells after 3 passage for 35 days to EC50 for wild type HRV Hanks infected in human H1-HeLa cells; assay type: functional

Question: With `CCOC(=O)/C=C/[C@H](C[C@@H]1CCNC1=O)NC(=O)[C@@H](CC(=O)[C@@H](NC(=O)c1cc(C)on1)C(C)C)Cc1ccc(F)cc1` [RUPINTRIVIR] as the compound, how does the “Ratio EC50” value [1] read?
Answer: 5

Question: What about the “Ratio EC50” value [2] of the same compound?
Answer: 15

Question: What about the “Ratio EC50” value [3] of the same compound?
Answer: 1

Question: What about the “Ratio EC50” value [4] of the same compound?
Answer: 1

Question: What about the EC50 [5] of the same compound?
Answer: 140 nM

Question: And the EC50 [6]?
Answer: 21 nM

Question: And the “Ratio EC50” value [7]?
Answer: 3

Question: What about the “Ratio EC50” value [8] of the same compound?
Answer: 1

Question: And the “Ratio EC50” value [9]?
Answer: 30

Question: What about the EC50 [10] of the same compound?
Answer: 227 nM

Question: What about the “Ratio EC50” value [11] of the same compound?
Answer: 20

Question: And the “Ratio EC50” value [12]?
Answer: 7

Question: And the “Ratio EC50” value [13]?
Answer: 1

Question: And the “Ratio EC50” value [14]?
Answer: 1

Question: What about the “Ratio EC50” value [15] of the same compound?
Answer: 6

Question: What about the EC50 [16] of the same compound?
Answer: 335 nM

Question: And the EC50 [17]?
Answer: 44 nM

Question: What about the EC50 [18] of the same compound?
Answer: 94 nM

Question: And the “Ratio EC50” value [19]?
Answer: 16

Question: And the EC50 [20]?
Answer: 268 nM

Question: What about the “Ratio EC50” value [21] of the same compound?
Answer: 4

Question: And the EC50 [22]?
Answer: 24 nM

Question: And the “Ratio EC50” value [23]?
Answer: 3

Question: And the “Ratio EC50” value [24]?
Answer: 5

Question: And the “Ratio EC50” value [25]?
Answer: 1

Question: What about the EC50 [26] of the same compound?
Answer: 14 nM

Question: And the EC50 [27]?
Answer: 67 nM

Question: And the Activity [28]?
Answer: 88.2%

Question: And the “Ratio EC50” value [29]?
Answer: 5

Question: What about the EC50 [30] of the same compound?
Answer: 96 nM

Question: What about the “Ratio EC50” value [31] of the same compound?
Answer: 90

Question: And the EC50 [32]?
Answer: 152 nM

Question: What about the “Ratio EC50” value [33] of the same compound?
Answer: 2
